The pIC50 is −log10 of the IC50, conventionally taken in molar units. High values mean a small IC50, low ones a large IC50. What is called melting point is the temperature of the solid-liquid transition.

Series [1] has as its system AKT protein phosphorylated on serine 473 (pAKT-S473). The series is described as follows: Study of pAKT expression in PC3 human prostate carcinoma cells measured by western blotting (Test A). The note with it: PC-3, inhibition of AKT phosphorylation (pAKT-S473), 1 to 2 hours incubation, absolute IC50, mean of two experiments. Format: cell-based. (In general: In western blotting, separated proteins are transferred to a membrane and probed.)

Series [2] has as its system AKT protein phosphorylated on serine 473 (P-AKT-S473). The series is described as follows: Study of pAKT expression in PC3 human prostate carcinoma cells measured by the MSD Multi-spot Biomarker Detection technique (Test B). Format: cell-based. The note with it: PC-3, inhibition of AKT phosphorylation (P-AKT-S473), MSD sandwich immunoassay, 1 to 2 h incubation, absolute IC50, mean of 2 experiments. The procedure, abridged:
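Lysate P-AKT-S473 quantified by MSD electrochemiluminescent sandwich immunoassay; inhibition vs DMSO and cell-free background, IC50 averaged over 2 experiments.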

pIC50: −log10 of the molar value. Some results are limits rather than exact numbers.

The compound `O=C(Cc1nc(N2CCOCC2)cc(=O)[nH]1)Nc1cccc(F)c1F` [Example 12, N-(2,3-difluorophenyl)-2-[4-(morpholin-4-yl)-6-oxo-1,6-dihydropyrimidin-2-yl]acetamide] came in with a melting point of 248 °C. In series [1], the pIC50 is 6.13.
Compound `O=C(Cc1nc(N2CCOCC2)cc(=O)[nH]1)Nc1ccc(F)c(CO)c1` [Example 35, N-[4-fluoro-3-(hydroxymethyl)phenyl]-2-[4-(morpholin-4-yl)-6-oxo-1,6-dihydropyrimidin-2-yl]acetamide] gave a melting point of more than 260 °C. This compound also showed a pIC50 in series [1] of 5.00.
`O=C(Cc1nc(N2CCOCC2)cc(=O)[nH]1)Nc1cccc(C2CC2)c1` [Example 36, N-(3-cyclopropylephenyl)-2-[4-(morpholin-4-yl)-6-oxo-1,6-dihydropyrimidin-2-yl]acetamide] came in with a melting point of 246 °C. Moreover, in series [1], the negative-log IC50 (pIC50) is 6.70.
On to `O=C(Cc1nc(N2CCOCC2)cc(=O)[nH]1)Nc1ccccc1O` [Example 37, N-(2-hydroxyphenyl)-2-[4-(morpholin-4-yl)-6-oxo-1,6-dihydropyrimidin-2-yl]acetamide], for which the melting point was more than 260 °C. Besides, the negative logarithm of the IC50 (pIC50) in series [1] is 5.00.
Take `CC(C)(C)OC(=O)NCCc1cccc(NC(=O)Cc2nc(N3CCOCC3)cc(=O)[nH]2)c1` [Example 46, 2-methylpropan-2-yl {2-[3-({[4-(morpholin-4-yl)-6-oxo-1,6-dihydropyrimidin-2-yl]acetyl}amino)phenyl]ethyl}-carbamate]: the melting point worked out at 194 °C. Further, in series [1], the negative logarithm of the IC50 (pIC50) was 5.60.
Take `Cn1c(CC(=O)Nc2cccc(Br)c2)nc(N2CCOCC2)cc1=O` [Example 69, N-(3-bromophenyl)-2-[1-methyl-4-(morpholin-4-yl)-6-oxo-1,6-dihydropyrimidin-2-yl]acetamide]: the melting point was found to be 266 °C. In series [1], the pIC50 is 6.60.
The like results for `COCc1cc(NC(=O)Cc2nc(N3CCOCC3)cc(=O)[nH]2)ccc1F` [Example 73, N-[4-fluoro-3-(methoxymethyl)phenyl]-2-[4-(morpholin-4-yl)-6-oxo-1,6-dihydropyrimidin-2-yl]acetamide] were, in that order, 220 °C and 6.19.
For the compound `O=C(Cc1nc(N2CCOCC2)cc(=O)[nH]1)N1CCc2c(CO)cccc21` [Example 132, 2-{2-[4-(hydroxymethyl)-2,3-dihydro-1H-indol-1-yl]-2-oxoethyl}-6-(morpholin-4-yl)pyrimidin-4(3H)-one], the melting point is 234 °C. This compound also showed a pIC50 in series [2] of 6.27.
On the same counts, the results for `CN(C)C[C@H]1CN(C(=O)Cc2nc(N3CCOCC3)cc(=O)[nH]2)c2ccccc21` [Example 136, 2-(2-{(3S)-3-[(dimethylamino)methyl]-2,3-dihydro-1H-indol-1-yl}-2-oxoethyl)-6-(morpholin-4-yl)pyrimidin-4(3H)-one] are 256 °C and 7.59.
The like results for `O=C(Cc1nc(N2CCOCC2)cc(=O)[nH]1)Nc1cccc2c1OCCN2` [Example 143, N-(3,4-dihydro-2H-1,4-benzoxazin-8-yl)-2-[4-(morpholin-4-yl)-6-oxo-1,6-dihydropyrimidin-2-yl]acetamide] were, in that order, 243 °C and 6.33.
On the same counts, the results for `CCN(CC)CC1CN(C(=O)Cc2nc(N3CCOCC3)cc(=O)[nH]2)c2ccccc21` (stereo not drawn) [Example 145, 2-(2-{3-[(diethylamino)methyl]-2,3-dihydro-1 H-indol-1-yl}-2-oxoethyl)-6-(morpholin-4-yl)pyrimidin-4(3 H)-one] are 202 °C and 7.42.
Compound `O=C(Cc1nc(N2CCOCC2)cc(=O)[nH]1)Nc1cccc2c1NCCC2` [Example 148, 2-[4-(morpholin-4-yl)-6-oxo-1,6-dihydropyrimidin-2-yl]-N-(1,2,3,4-tetrahydroquinolin-8-yl)acetamide] displayed a melting point of 232 °C. The same compound showed a pIC50 in series [2] of 6.63.

(Values after US8993565B2, “(6-oxo-1,6-dihydropyrimidin-2-yl)amide derivatives, preparation thereof and pharmaceutical use thereof as AKT(PKB) phosphorylation inhibitors” (Sanofi, priority 2009, dated 2015).)
